Values joined by “and” are separate entries in the source; they are usually repeats but may differ in a detail not shown here. Equal values may be shown once. Read-outs that look alike come from different tables or passages of the source.
Key:
[1] = biological target: NMDA receptor-associated ionic channel (PCP/TCP binding site); assay: Displacement of TCP Binding (3H-TCP, membrane preparation of rat cortex)
Description: Phencyclidine (PCP), a known NMDA antagonist, binds to the NMDA receptor-associated ionic channel and blocks ionic transport (Garthwaite & Garthwaite, Neurosci. Lett. 83, 1987, 241-246).
The interaction between compounds of formula (I) and the PCP bond is studied in the following. In this test ^3 H-TCP, a PCP analogue, is used.
A membrane preparation of rat cortex is incubated with ^3 H-TCP which is an analogue of phencyclidine (PCP) (Quirion & Pert 1982, Eur. J. Pharmacol. 83:155). The interaction with the TCP binding is assessed for test compound no. 1 (1-amino-3,5-dimethyl adamantane) in a competitive experiment. […] The conclusion can be drawn that compound no. 1 binds to NMDA receptor channels at the same site as the NMDA antagonist PCP.

NMDA receptor channel = assay: Blocking of NMDA Receptor Channels (patch-clamp, cultivated spinal marrow neurons); type: cell-based, mouse; settings: 20 μM NMDA and 6 μM of adamantane derivative; current integrated 20 sec; means ± SEM
Description: In the following test it is shown that the compounds of formula (I) according to the invention are as effective as PCP in blocking the NMDA receptor channel.
In the patch-clamp experiment, the current flowing through NMDA-activated membrane channels of cultivated spinal marrow neurons (mouse) is measured (Hamill et al 1981, Pflugers Arch. 312: 85-100). After application of 20 μM NMDA, the current signal of the cell is integrated for 20 sec. and recorded as a control answer (Ac). During succeeding application of 20 μM NMDA and 6 μM of an adamantane derivative, the intensity of the substance effect can be determined as a relative change of the control answer (A/Ac -A=test answer).

[2] = system: electrically induced convulsions; assay: Anticonvulsive Effect (supermaximum electroshock test in mice); type: in vivo, mouse; settings: for ED50 / Anticonvulsive action (score), Mean: i.p.; for ED50: electroshock 40 min after application, estimated according to Litchfield and Wilcoxon; for Anticonvulsive action (score): i.p., 4, 12, 36, 108 and 324 mg/kg, protected animals added over all dosages, maximum = 25, individual scores; for Anticonvulsive action (score), Mean: mean of scores, maximum = 25
Description: 4, 12, 36, 108 and 324 mg/kg of the test substance is administered to mice by the intraperitoneal route (5 animals per dose). The supermaximum electroshock test is applied forty (40) minutes after application of the substance to investigate the anti-convulsive potential of the substance. The protected animals are added up over all dosages (score; maximum=25 animals).

[3] = system: neurons in the CA1-CA4 region of the hippocampus; assay: Protection Against Cerebral Ischemia (carotid occlusion in rats, hippocampal histology); type: in vivo, rat; settings: for damaged neurons, area CA1 / damaged neurons, area CA3 / damaged neurons, area CA4: single administration 1 h prior to ischemia, ± SEM
Description: Both carotid arteries are occluded in rats for 10 minutes. […] The ischemia is terminated by opening the carotids and reinfusion of the withdrawn blood. After seven days the brains of the test animals are histologically examined for cellular changes in the CA1-CA4 region of the hippocampus, and the percentage of destroyed neurons is determined.

NMDA-induced mortality = assay: Protection Against NMDA-Induced Mortality (mice); type: in vivo, mouse; settings: 200 mg/kg NMDA i.p.
Description: It is well known that, subsequent to cerebral ischemia, glutamate and aspartate levels increase massively in the brain. These excitatory aminoacids overstimulate the NMDA-subtype of the glutamate receptor thus leading to delayed neuronal death. A similar pathophysiological situation is obtained when mice are administered intraperitoneally with 200 mg/kg NMDA. This high dose will eventually cause 100% mortality in the animals (Leander et al. 1984, Brain Res. 448; 115-120).

[4] = system: MK-801 binding site of the NMDA receptor channel; settings: as reported in the foregoing publication (Kornhuber et al. 1989); cited from earlier work
[5] = system: brain cells after cerebral ischemia; settings: rats; Sauer et al. 1988; cited from earlier work
[6] = biological target: MK-801 binding site of the NMDA receptor channel; assay: Displacement of [3H] MK-801 Binding in Human Brain Tissue (frontal cortex homogenates); settings: [3H] MK-801 (3 nM), mean of triplicate experiments
Description: MK-801 binds to the ion channel associated with the NMDA receptor, as well as TCP does. This binding site is thought to mediate the neuroprotective effects of non-competitive NMDA-antagonists.
We have investigated whether the adamantane derivatives of the present invention are active at the MK-801 binding site. Tissue from frontal cortex was taken from patients at autopsy and homogenates were prepared. Inhibition of specific [^3 H] MK-801 binding (3 nM) by the test compounds was determined (see e.g. Kornhuber et al. 1989, Eur. J. Pharmacol. 166: 589-590).
wherein Ki is the inhibition constant and nM is nanomoles per liter. Mean values from triplicate experiments are given ± S.E.M.
The inhibition constant Ki is approximately equal to the concentration of the adamantane in nM required to displace 50% of the MK-801 specifically bound to the receptor.

[7] = Mus musculus, ip, 40 min, read-out: ED50

SMILES | 1-A/Ac (NMDA receptor channel) | ED50 [2, 7] [mg/kg] | Anticonvulsive action (score) ([2]; 40 min) | Anticonvulsive action (score), Mean ([2]; 40 min) | Protected Animals (NMDA-induced mortality; 25 mg/kg) | Protected Animals (NMDA-induced mortality; 50 mg/kg) | Ki [6] [nM] | other results
CC12CC3CC(C)(C1)CC(N)(C3)C2 [Compound no. 1, 1-amino-3,5-dimethyl adamantane] | 0.66 ± 0.05 | 16 | 18 and 16 and 15 | 16.3 | 6/8 | 8/8 | – | IC50 ([1]; membrane preparation of rat cortex, competitive experiment): 89 nM; displacement of TCP from the bond (in words) ([1]; rat cortex membranes): very effective; damaged neurons, area CA1 ([3]; 5 mg/kg (n = 5)): 83.0 ± 2.2%; damaged neurons, area CA3 ([3]; 5 mg/kg (n = 5)): 7.3 ± 1.8%; damaged neurons, area CA4 ([3]; 5 mg/kg (n = 5)): 3.7 ± 1.7%; damaged neurons, area CA3 ([3]; 20 mg/kg (n = 6)): 2.7 ± 1.0%; damaged neurons, area CA4 ([3]; 20 mg/kg (n = 6)): 0.6 ± 0.3%; damaged neurons, area CA1 ([3]; 20 mg/kg (n = 6), **p < 0.01 (U test)): 53.1 ± 6.1%; reduction of post-ischemic neuronal brain damage in the CA1 region (in words) ([3]; pre-ischemic application of 20 mg/kg, rat hippocampus): statistically significant; physiological parameters (e.g. blood pressure, body temperature) ([3]; rats, during ischemia test): not affected by the treatment; Protected Animals (NMDA-induced mortality; 10 mg/kg): 3/8; potency compared with thirteen other clinically-used and centrally-acting drugs (in words) [4]: most potent compound
C[C@]12N[C@H](Cc3ccccc31)c1ccccc12 [MK-801, 5-methyl-10,11-dihydro-5H-dibenzo[a,d]cycloheptene-5,10-imine, reference compound] | 0.60 ± 0.05 | < 1 | 25 | 25.0 | – | – | – | –
c1ccc(C2(N3CCCCC3)CCCCC2)cc1 [PCP, Phencyclidine, reference compound] | 0.50 ± 0.04 | – | 19 | 19.0 | – | – | – | ED50 [2]: 9 mg/kg; prevention of destruction of brain cells after cerebral ischemia (in words) [5]: prevent the destruction of brain cells after cerebral ischemia in rats
CCC12CC3CC(CC(N)(C3)C1)C2 [compound 2, 1-amino-3-ethyl adamantane] | 0.44 ± 0.08 | 30 | 15 and 14 and 12 | 13.7 | – | – | – | –
CC(C)C12CC3CC(CC(N)(C3)C1)C2 [compound 3, 1-amino-3-isopropyl adamantane] | 0.58 ± 0.07 | – | – | – | 4/8 | 6/8 | 598 | –
CCC12CC3CC(N)(C1)CC(CC)(C3)C2 [compound 4, 1-amino-3,5-diethyl adamantane] | 0.50 ± 0.11 | 24 | 16 and 11 | 14.3 | 5/8 | 7/8 | 189 | –
CNC12CC3CC(C)(CC(C)(C3)C1)C2 [compound 5, 1-N-methylamino-3,5-dimethyl adamantane] | 0.56 ± 0.07 | 13 | 17 | 17.0 | 5/8 | – | 1610 | –
CCNC12CC3CC(C)(CC(C)(C3)C1)C2 [compound 6, 1-N-ethylamino-3,5-dimethyl adamantane] | 0.38 ± 0.05 | – | – | – | – | – | – | –
NC12CC3CC(C1)CC(C1CCCCC1)(C3)C2 [compound 7, 1-amino-3-cyclohexyl adamantane] | 0.25 ± 0.04 | – | – | – | – | – | – | –
CCC12CC3(C)CC(C)(CC(N)(C3)C1)C2 [compound 8, 1-amino-3,5-dimethyl-7-ethyl adamantane] | 0.50 ± 0.03 | – | – | – | – | – | – | –

— US5061703A, “Adamantane derivatives in the prevention and treatment of cerebral ischemia” (priority 1989, dated 1991)
